In article PMC5584945, “Evaluation of robenidine analog NCL195 as a novel broad-spectrum antibacterial agent” (PLoS ONE, 2017):
Values after ≈ are worked out from the molar mass of the structure shown.

Key:
[1] = system: vancomycin-resistant enterococci (VRE); assay: MIC, broth micro-dilution (CLSI); assay type: cell-based, enterococci (porcine isolates); settings: for MIC90 / MIC50 / MIC: Enterococcus, VRE
[2] = system: Enterococcus faecalis ATCC 29212; assay: MIC, broth micro-dilution (CLSI), control strain; assay type: cell-based
Experimental: MICs for NCL812 and its analogs (serial two-fold dilutions commencing at 128 μg/ml) were determined (in duplicate) in round bottom 96-well microtitre trays (Sarstedt 82.1582.001), using the broth micro-dilution method recommended by the Clinical and Laboratory Standards Institute (CLSI). […] MIC50, MIC90 and MIC range for NCL812, NCL195 and NCL219 were calculated against each S. pneumoniae, S. aureus or VRE isolate. To assess the potential activity of NCL195 against Gram-negative bacteria, MICs against Acinetobacter spp, E. coli, K. pneumoniae, P. aeruginosa, Proteus spp and Neisseria meningitidis were performed in the presence or absence of 0.08 mM-20 mM EDTA in a standard checkerboard assay.

[3] = system: S. aureus Xen29; assay: Time-dependent killing assay; assay type: cell-based, Staphylococcus aureus; settings: 4× MIC
Experimental: Time kill assays were performed (in duplicate) essentially as described previously with slight modifications. Briefly, a few colonies of luminescent S. pneumoniae strain D39LUX or luminescent S. aureus ATCC 12600 (Xen29) from an overnight HBA were emulsified in normal saline and adjusted to A600 nm = 0.10 (equivalent to approx. 5 × 10^7 c.f.u. per ml) and the bacterial suspension further diluted 1:20 in saline. […] The compounds were serially diluted in 100% DMSO at 100× the final desired concentration and 100 μl of appropriate concentrations added to each 10 ml preparation. Duplicate cultures were incubated at 37°C (+ 5% CO2 for S. pneumoniae D39), with samples withdrawn at 0, 0.5, 1, 2, 4, 6, 8 and 24 h, serially diluted 10-fold and plated on HBA overnight at 37°C (+ 5% CO2 for S. pneumoniae D39) for bacterial enumeration.

[4] = system: S. aureus ATCC49775; assay: Membrane potential, DiOC2(3) fluorescence; assay type: cell-based, Staphylococcus aureus; settings: 16 μg/ml, pre-incubated 5 min; versus untreated and ampicillin
Experimental: To further examine the mechanism underlying the perturbation of the cell membrane of S. pneumoniae or S. aureus by the NCL compounds, the membrane potential of the cells was measured by fluorescence spectrometry using (DiOC2(3), essentially as described previously. Briefly, […] cells from an overnight HBA plate were grown in Todd-Hewitt broth supplemented with 1% yeast extract (THY) at 37°C, 5% CO2 until A600 nm = 0.5. […] The cuvette was then placed in a LS 55 Fluorescence Spectrometer (PerkinElmer) set at Ex. 488 nm/Em. 620 nm, with excitation and emission slit widths at 5 nm and 7 nm, respectively). […] All assays were performed at least twice.

[5] = Kinetic solubility by nephelometry; assay type: physicochemical; settings: kinetic from dmso stock
[6] = system: human red blood cells; assay: Haemolysis assay; assay type: cell-based; settings: 1 h, 37°C; highest concentration used 128 μg/ml
Experimental: This was performed using fresh donor human red blood cells (RBCs), essentially as described previously. Fresh RBCs were washed in PBS three times at 500 × g for 5 min, and then resuspended 1% (w/v) in PBS. […] Thereafter, 198 μL of the 1% RBC solution was added into each well, and the mixture incubated for 1 h at 37°C, with shaking at 100 rpm. Quadruplicate wells containing either 1% Triton X100, or PBS only, served as controls. After incubation, the trays were centrifuged at 1,000 × g for 3 min and 100 μl of supernatant from each well transferred into a new 96-well tray. Absorbance was measured at A450 nm on a Multiskan Ascent 354 Spectrophotometer (Labsystems) and plotted against each dilution. Haemolytic titer was determined as the reciprocal of the dilution at which 50% of erythrocytes were lysed at A450 nm. The experiment was performed twice.

[7] = system: MDBK; assay: Real-time cell viability, RealTime-Glo MT; assay type: cell-based, bovine; settings: 2 or 8 μg/ml, up to 20 h post-treatment
From the text: In order to ensure minimal off target mammalian cell cytotoxicity, we assayed NCL812, NCL195 and NCL219 for in vitro cytotoxicity using a panel of adherent mammalian cell lines: Caco-2 (human colorectal adenocarcinoma cell line), HEL 299 (non-cancerous human lung fibroblast cell line), Hep G2 (human hepatocellular carcinoma cell line), MDBK (normal bovine kidney cell line) and MCF7 (human mammary gland adenocarcinoma cell line). Cell lines were maintained in Dulbecco’s Modified Eagle’s Medium (DMEM; […] After 24 h incubation, media was removed, washed once with medium without antibiotics and fresh medium supplemented with 10% (vol/vol) FBS was added. […] Following exposure for 24 h, WST-1 reagent was added to each well at a final concentration of 10%. […] The IC50 value for each compound against each cell line was determined via non-linear regression (three parameters) using GraphPad Prism v6 software. The robustness of assays was confirmed with selected cell lines (Hep G2 and MDBK) seeded onto a 96–well Microwell Nunclon Delta Surface plate (Thermo Scientific Nunc; Cat No: 136101) at 5 × 10^4 cells per well.

[8] = S3 Table isolates, absence of FBS

CCCCCCCCCC(=O)N[C@@H](Cc1c[nH]c2ccccc12)C(=O)N[C@H](CC(N)=O)C(=O)N[C@@H](CC(=O)O)C(=O)N[C@@H]1C(=O)NCC(=O)N[C@@H](CCCN)C(=O)N[C@@H](CC(=O)O)C(=O)N[C@H](C)C(=O)N[C@@H](CC(=O)O)C(=O)NCC(=O)N[C@H](CO)C(=O)N[C@@H]([C@H](C)CC(=O)O)C(=O)N[C@@H](CC(=O)c2ccccc2N)C(=O)O[C@@H]1C [Daptomycin, daptomycin]
MIC90 ([1]; 20 isolates): 2 µg/mL (≈ 1.23 µM) | MIC50 [1, 8]: 1 µg/mL (≈ 0.617 µM) | MIC90 [1, 8]: 2 µg/mL (≈ 1.23 µM) | MIC ([1]; VRE 1 (49 FR), absence of FBS): 1 µg/mL (≈ 0.617 µM) | MIC ([1]; VRE 2 (53 FR), absence of FBS): 2 µg/mL (≈ 1.23 µM) | MIC ([1]; VRE 3 (55 FR), absence of FBS): 2 µg/mL (≈ 1.23 µM) | MIC ([1]; VRE 4 (57 FR), absence of FBS): 2 µg/mL (≈ 1.23 µM) | MIC ([1]; VRE5 (58 FR), absence of FBS): 2 µg/mL (≈ 1.23 µM) | MIC ([1]; VRE 6 (59 FR), absence of FBS): 2 µg/mL (≈ 1.23 µM) | MIC ([1]; VRE 7 (270 G), absence of FBS): 1 µg/mL (≈ 0.617 µM) | MIC ([1]; VRE 8 (277 G), absence of FBS): 0.5 µg/mL (≈ 0.309 µM) | MIC ([1]; VRE 9 (61 FR), absence of FBS): 1 µg/mL (≈ 0.617 µM) | MIC ([1]; VRE 10 (62 FR), absence of FBS): 2 µg/mL (≈ 1.23 µM) | MIC ([1]; VRE 11 (284 G), absence of FBS): 0.5 µg/mL (≈ 0.309 µM) | MIC ([1]; VRE 12 (290 G), absence of FBS): 1 µg/mL (≈ 0.617 µM) | MIC ([1]; VRE 13 (251 G), absence of FBS): 0.5 µg/mL (≈ 0.309 µM) | MIC ([1]; VRE 14 (252 G), absence of FBS): 1 µg/mL (≈ 0.617 µM) | MIC ([1]; VRE 15 (63 FR), absence of FBS): 1 µg/mL (≈ 0.617 µM) | MIC ([1]; VRE 16 (60 FR), absence of FBS): 2 µg/mL (≈ 1.23 µM) | MIC ([1]; VRE 17 (45 FR), absence of FBS): 2 µg/mL (≈ 1.23 µM) | MIC ([1]; VRE 18 (69 W), absence of FBS): 1 µg/mL (≈ 0.617 µM) | MIC ([1]; VRE 19 (70 W), absence of FBS): 0.5 µg/mL (≈ 0.309 µM) | MIC ([1]; VRE 20 (78 W), absence of FBS): 2 µg/mL (≈ 1.23 µM) | MIC range [1, 8]: 0.5 to 2 µg/mL | MIC ([2]; ATCC29212, 10% FBS): 2 µg/mL | MIC ([2]; ATCC29212, absence of FBS): 2 µg/mL | Time to clear all Xen29 [3]: 1 h

C/C(=N\NC(=N)N/N=C(\C)c1ccc(C(C)(C)C)cc1)c1ccc(C(C)(C)C)cc1 [NCL219, (E)-N'-((E)-1-(4-(tert-butyl)phenyl)ethylidene)-2-(1-(4-(tert-butyl)phenyl)ethylidene)hydrazine-1-carboximidhydrazide]
Fold increase of MIC range in the presence of 10% FBS ([1]; 10% FBS versus no FBS): 8 fold | MIC range ([1]; 20 isolates): 1 to 2 µg/mL | MIC50 ([1]; S3 Table isolates, 10% FBS): 8 µg/mL (≈ 19.7 µM) | MIC90 ([1]; S3 Table isolates, 10% FBS): 16 µg/mL (≈ 39.4 µM) | MIC50 [1, 8]: 2 µg/mL (≈ 4.93 µM) | MIC90 [1, 8]: 2 µg/mL (≈ 4.93 µM) | MIC ([1]; VRE 1 (49 FR), 10% FBS): 16 µg/mL (≈ 39.4 µM) | MIC ([1]; VRE 1 (49 FR), absence of FBS): 2 µg/mL (≈ 4.93 µM) | MIC ([1]; VRE 2 (53 FR), 10% FBS): 8 µg/mL (≈ 19.7 µM) | MIC ([1]; VRE 2 (53 FR), absence of FBS): 2 µg/mL (≈ 4.93 µM) | MIC ([1]; VRE 3 (55 FR), 10% FBS): 8 µg/mL (≈ 19.7 µM) | MIC ([1]; VRE 3 (55 FR), absence of FBS): 2 µg/mL (≈ 4.93 µM) | MIC ([1]; VRE 4 (57 FR), 10% FBS): 8 µg/mL (≈ 19.7 µM) | MIC ([1]; VRE 4 (57 FR), absence of FBS): 2 µg/mL (≈ 4.93 µM) | MIC ([1]; VRE5 (58 FR), 10% FBS): 8 µg/mL (≈ 19.7 µM) | MIC ([1]; VRE5 (58 FR), absence of FBS): 2 µg/mL (≈ 4.93 µM) | MIC ([1]; VRE 6 (59 FR), 10% FBS): 8 µg/mL (≈ 19.7 µM) | MIC ([1]; VRE 6 (59 FR), absence of FBS): 2 µg/mL (≈ 4.93 µM) | MIC ([1]; VRE 7 (270 G), 10% FBS): 16 µg/mL (≈ 39.4 µM) | MIC ([1]; VRE 7 (270 G), absence of FBS): 2 µg/mL (≈ 4.93 µM) | MIC ([1]; VRE 8 (277 G), 10% FBS): 8 µg/mL (≈ 19.7 µM) | MIC ([1]; VRE 8 (277 G), absence of FBS): 1 µg/mL (≈ 2.47 µM) | MIC ([1]; VRE 9 (61 FR), 10% FBS): 8 µg/mL (≈ 19.7 µM) | MIC ([1]; VRE 9 (61 FR), absence of FBS): 1 µg/mL (≈ 2.47 µM) | MIC ([1]; VRE 10 (62 FR), 10% FBS): 16 µg/mL (≈ 39.4 µM) | MIC ([1]; VRE 10 (62 FR), absence of FBS): 1 µg/mL (≈ 2.47 µM) | MIC ([1]; VRE 11 (284 G), 10% FBS): 8 µg/mL (≈ 19.7 µM) | MIC ([1]; VRE 11 (284 G), absence of FBS): 2 µg/mL (≈ 4.93 µM) | MIC ([1]; VRE 12 (290 G), 10% FBS): 8 µg/mL (≈ 19.7 µM) | MIC ([1]; VRE 12 (290 G), absence of FBS): 2 µg/mL (≈ 4.93 µM) | MIC ([1]; VRE 13 (251 G), 10% FBS): 8 µg/mL (≈ 19.7 µM) | MIC ([1]; VRE 13 (251 G), absence of FBS): 2 µg/mL (≈ 4.93 µM) | MIC ([1]; VRE 14 (252 G), 10% FBS): 8 µg/mL (≈ 19.7 µM) | MIC ([1]; VRE 14 (252 G), absence of FBS): 2 µg/mL (≈ 4.93 µM) | MIC ([1]; VRE 15 (63 FR), 10% FBS): 8 µg/mL (≈ 19.7 µM) | MIC ([1]; VRE 15 (63 FR), absence of FBS): 2 µg/mL (≈ 4.93 µM) | MIC ([1]; VRE 16 (60 FR), 10% FBS): 8 µg/mL (≈ 19.7 µM) | MIC ([1]; VRE 16 (60 FR), absence of FBS): 2 µg/mL (≈ 4.93 µM) | MIC ([1]; VRE 17 (45 FR), 10% FBS): 8 µg/mL (≈ 19.7 µM) | MIC ([1]; VRE 17 (45 FR), absence of FBS): 2 µg/mL (≈ 4.93 µM) | MIC ([1]; VRE 18 (69 W), 10% FBS): 8 µg/mL (≈ 19.7 µM) | MIC ([1]; VRE 18 (69 W), absence of FBS): 2 µg/mL (≈ 4.93 µM) | MIC ([1]; VRE 19 (70 W), 10% FBS): 8 µg/mL (≈ 19.7 µM) | MIC ([1]; VRE 19 (70 W), absence of FBS): 2 µg/mL (≈ 4.93 µM) | MIC ([1]; VRE 20 (78 W), 10% FBS): 8 µg/mL (≈ 19.7 µM) | MIC ([1]; VRE 20 (78 W), absence of FBS): 2 µg/mL (≈ 4.93 µM) | MIC range ([1]; S3 Table isolates, 10% FBS): 8 to 16 µg/mL | MIC range [1, 8]: 1 to 2 µg/mL | MIC ([2]; ATCC29212, 10% FBS): 8 µg/mL | MIC ([2]; ATCC29212, absence of FBS): 2 µg/mL | Effect on generated membrane potential [4]: large reduction in the magnitude of the generated membrane potential | solubility ([5]; pH 2.0): 0.78 to 1.6 µg/mL (≈ 1.92 to 3.94 µM) | solubility ([5]; pH 6.5): 0.78 to 1.6 µg/mL (≈ 1.92 to 3.94 µM) | 50% haemolysis titre (HC50) [6]: 6 µg/mL | Effect on cell viability (real-time) [7]: had a demonstrable effect on viability at 2 μg/ml
